Measured values taken from ChEMBL document CHEMBL1201862, “PubChem BioAssay data set” (2004).
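Each compound was tested at five concentrations against cells in 96-well plates for 48 hours. At the GI50, growth is halved.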 Calls of active or inactive are those of the source. Cut-off read from the data, not from the text of the source: active = GI50 up to about 1.1 µM and inactive = higher.

Legend:
Experiment in all cases: growth of human tumour cells (NCI), 48 h
[1] = system: 786-0
[2] = system: A498
[3] = system: A549
[4] = system: ACHN
[5] = system: CCRF-CEM
[6] = system: COLO 205
[7] = system: DLD-1
[8] = system: DMS-114
[9] = system: DMS-273
[10] = system: EKVX
[11] = system: HCC 2998
[12] = system: HCT-116
[13] = system: HL-60
[14] = system: HOP-18
[15] = system: HOP-62
[16] = system: HOP-92
[17] = system: HT-29
[18] = system: IGROV-1
[19] = system: K562
[20] = system: KM-20L2
[21] = system: KM12
[22] = system: LOX IMVI
[23] = system: LXFL 529
[24] = system: MOLT-4
[25] = system: Malme-3M
[26] = system: NCI-H23
[27] = system: NCI-H460
[28] = system: NCI-H522
[29] = system: OVCAR-3
[30] = system: OVCAR-5
[31] = system: OVCAR-8
[32] = system: RPMI-8226
[33] = system: RXF 393
[34] = system: RXF 631
[35] = system: SF-268
[36] = system: SF-295
[37] = system: SF-539
[38] = system: SK-MEL-28
[39] = system: SK-MEL-2
[40] = system: SK-OV-3
[41] = system: SNB-19
[42] = system: SNB-75
[43] = system: SNB-78
[44] = system: SW-620
[45] = system: TK-10
[46] = system: U-251
[47] = system: UACC-257
[48] = system: UO-31
[49] = system: XF498
[50] = system: CAKI-1
[51] = system: HCT-15
[52] = system: M14
[53] = system: M19-MEL
[54] = system: NCI-H226
[55] = system: OVCAR-4
[56] = system: SN12C
[57] = system: SR
[58] = system: UACC-62

## COc1ccc(/C=[N+](\[O-])[C@H](COCc2ccccc2)c2ccccc2)cc1
[1]
  GI50: > 100 µM (inactive)
[2]
  GI50: > 100 µM (inactive)
[3]
  GI50: > 10 µM (inactive)
[4]
  GI50: 51.8 µM (inactive)
[5]
  GI50: 35.7 µM (inactive)
[6]
  GI50: 84.3 µM (inactive)
[7]
  GI50: 89.1 µM (inactive)
[8]
  GI50: > 100 µM (inactive)
[9]
  GI50: > 100 µM (inactive)
[10]
  GI50: 30.1 µM (inactive)
[11]
  GI50: > 100 µM (inactive)
[12]
  GI50: 43.3 µM (inactive)
[13]
  GI50: 25 µM (inactive)
[14]
  GI50: 57.4 µM (inactive)
[15]
  GI50: > 100 µM (inactive)
[16]
  GI50: 23.9 µM (inactive)
[17]
  GI50: 52.1 µM (inactive)
[18]
  GI50: > 100 µM (inactive)
[19]
  GI50: 45.3 µM (inactive)
[20]
  GI50: > 100 µM (inactive)
[21]
  GI50: 89.1 µM (inactive)
[22]
  GI50: 89.9 µM (inactive)
[23]
  GI50: 77.8 µM (inactive)
[24]
  GI50: 25.2 µM (inactive)
[25]
  GI50: 42.1 µM (inactive)
[26]
  GI50: > 100 µM (inactive)
[27]
  GI50: 63.7 µM (inactive)
[28]
  GI50: 41.1 µM (inactive)
[29]
  GI50: 44.4 µM (inactive)
[30]
  GI50: > 100 µM (inactive)
[31]
  GI50: > 100 µM (inactive)
[32]
  GI50: 15.7 µM (inactive)
[33]
  GI50: 98.9 µM (inactive)
[34]
  GI50: > 100 µM (inactive)
[35]
  GI50: 67.5 µM (inactive)
[36]
  GI50: 66.8 µM (inactive)
[37]
  GI50: > 100 µM (inactive)
[38]
  GI50: 38 µM (inactive)
[39]
  GI50: 30.3 µM (inactive)
[40]
  GI50: > 100 µM (inactive)
[41]
  GI50: 46.7 µM (inactive)
[42]
  GI50: > 100 µM (inactive)
[43]
  GI50: > 100 µM (inactive)
[44]
  GI50: 92 µM (inactive)
[45]
  GI50: > 100 µM (inactive)
[46]
  GI50: > 100 µM (inactive)
[47]
  GI50: > 100 µM (inactive)
[48]
  GI50: 17.3 µM (inactive)
[49]
  GI50: > 100 µM (inactive)

## COc1cc2c(cc1O)[C@H](Cc1ccc(Oc3cc(C[C@H]4c5cc(OC)c(OC)cc5CCN4C)ccc3OC)cc1)NCC2
[1]
  GI50: 12.4 µM (inactive)
[2]
  GI50: 13.7 µM (inactive)
[3]
  GI50: 17.9 µM (inactive)
[4]
  GI50: 11.4 µM (inactive)
[50]
  GI50: 4.08 µM (inactive)
[5]
  GI50: 9.64 µM (inactive)
[6]
  GI50: 17.9 µM (inactive)
[8]
  GI50: 18.7 µM (inactive)
[9]
  GI50: 19.5 µM (inactive)
[10]
  GI50: > 10 µM (inactive)
[11]
  GI50: 6.62 µM (inactive)
[12]
  GI50: 8.11 µM (inactive)
[51]
  GI50: 7.98 µM
[13]
  GI50: 12.4 µM (inactive)
[14]
  GI50: 17.1 µM (inactive)
[15]
  GI50: > 10 µM (inactive)
[16]
  GI50: 5.16 µM (inactive)
[17]
  GI50: 6.22 µM (inactive)
[18]
  GI50: 15.2 µM (inactive)
[19]
  GI50: 2.21 µM (inactive)
[20]
  GI50: 10.1 µM (inactive)
[21]
  GI50: 12.9 µM (inactive)
[22]
  GI50: 8.95 µM (inactive)
[23]
  GI50: 13.7 µM (inactive)
[52]
  GI50: 1.81 µM (inactive)
[53]
  GI50: 22.6 µM (inactive)
[24]
  GI50: 3.25 µM (inactive)
[25]
  GI50: 22.1 µM (inactive)
[54]
  GI50: 12.7 µM (inactive)
[26]
  GI50: 11.9 µM (inactive)
[27]
  GI50: 14.3 µM (inactive)
[29]
  GI50: 10.5 µM (inactive)
[55]
  GI50: 12.7 µM (inactive)
[30]
  GI50: 18 µM (inactive)
[31]
  GI50: 14.5 µM (inactive)
[32]
  GI50: 12.9 µM (inactive)
[33]
  GI50: 3.77 µM (inactive)
[34]
  GI50: 15.5 µM (inactive)
[35]
  GI50: 11.1 µM (inactive)
[36]
  GI50: 11.9 µM (inactive)
[37]
  GI50: 10.5 µM (inactive)
[38]
  GI50: 16.8 µM (inactive)
[39]
  GI50: 17 µM (inactive)
[56]
  GI50: 14.8 µM (inactive)
[41]
  GI50: 16.1 µM (inactive)
[42]
  GI50: 6.56 µM (inactive)
[57]
  GI50: 7.5 µM (inactive)
[44]
  GI50: 11.6 µM (inactive)
[45]
  GI50: > 10 µM (inactive)
[46]
  GI50: 12 µM (inactive)
[47]
  GI50: 15.8 µM (inactive)
[58]
  GI50: 17.8 µM (inactive)
[48]
  GI50: 8.75 µM (inactive)
[49]
  GI50: 11.2 µM (inactive)

## Cc1ccc(NC(=O)c2cccc([N+](=O)[O-])c2O)c([N+](=O)[O-])c1
[1]
  GI50: 12.7 µM (inactive)
[2]
  GI50: 16 µM (inactive)
[3]
  GI50: 21.6 µM (inactive)
[4]
  GI50: 16.4 µM (inactive)
[50]
  GI50: 29.5 µM (inactive)
[5]
  GI50: > 100 µM (inactive)
[6]
  GI50: 19.9 µM (inactive)
[7]
  GI50: 14.9 µM (inactive)
[8]
  GI50: 12.6 µM (inactive)
[9]
  GI50: 11.7 µM (inactive)
[10]
  GI50: 23.2 µM (inactive)
[11]
  GI50: 15.9 µM (inactive)
[12]
  GI50: 9.38 µM (inactive)
[51]
  GI50: 14.4 µM
[13]
  GI50: 25.9 µM (inactive)
[14]
  GI50: 19.2 µM (inactive)
[15]
  GI50: 20.5 µM (inactive)
[16]
  GI50: 21.5 µM (inactive)
[17]
  GI50: 12.1 µM (inactive)
[18]
  GI50: 20.9 µM (inactive)
[19]
  GI50: 18.8 µM (inactive)
[20]
  GI50: 18.7 µM (inactive)
[21]
  GI50: 10.6 µM (inactive)
[22]
  GI50: 11.5 µM (inactive)
[23]
  GI50: 13 µM (inactive)
[52]
  GI50: 16.7 µM (inactive)
[53]
  GI50: 14.3 µM (inactive)
[24]
  GI50: > 10 µM (inactive)
[25]
  GI50: 14.9 µM (inactive)
[54]
  GI50: 3.29 µM (inactive)
[26]
  GI50: 13.6 µM (inactive)
[27]
  GI50: 5.58 µM (inactive)
[28]
  GI50: 14.1 µM (inactive)
[29]
  GI50: 18.9 µM (inactive)
[55]
  GI50: 13.5 µM (inactive)
[30]
  GI50: 20.2 µM (inactive)
[31]
  GI50: 12.5 µM (inactive)
[32]
  GI50: 8.69 µM (inactive)
[33]
  GI50: 11.3 µM (inactive)
[34]
  GI50: 12.3 µM (inactive)
[35]
  GI50: 17.9 µM (inactive)
[36]
  GI50: 15.1 µM (inactive)
[37]
  GI50: 14.7 µM (inactive)
[38]
  GI50: 16.7 µM (inactive)
[40]
  GI50: 26.9 µM (inactive)
[56]
  GI50: 16.5 µM (inactive)
[41]
  GI50: 22.4 µM (inactive)
[42]
  GI50: 13.7 µM (inactive)
[43]
  GI50: 19.4 µM (inactive)
[44]
  GI50: 16.8 µM (inactive)
[46]
  GI50: 14.3 µM (inactive)
[47]
  GI50: 16.2 µM (inactive)
[58]
  GI50: 12 µM (inactive)
[48]
  GI50: 24.1 µM (inactive)
[49]
  GI50: 20.8 µM (inactive)
